Assay results as given in patent publication US20230293479A1, “MEDICINAL COMPOUNDS AND NUTRITIONAL SUPPLEMENTS” (RECEPTOR HOLDINGS, INC., priority 2017, published 2023).

What was measured:
study participants [1] = assay: Example 2: onset and duration of action of orally administered cannabis/SNAC composition at a low SNAC dose (100 mg); type: in vivo, human; details: oral cannabinoid formulation, 100 mg SNAC
Protocol: Example 2. […] This study was designed to assess the utility of SNAC in enabling a rapid-acting oral form of cannabis at a low dose.
Selection of Participants. Three study participants were recruited to ingest cannabis compositions and record the onset, duration, and intensity of cannabis-induced euphoria and/or dysphoria.
(§1) Formulations. The selected cannabis concentrate is commercially available and was provided to participants in an ethanol solution. The concentrate contains 8 mg THC per dose. It was selected because it contains a high percentage of THC, which provides a noticeable effect on user-reported “euphoria”.
(§2) Methods. For the Control experiment, each participant mixed the cannabis concentrate with 15 ml (one tablespoon) of aqueous ethanol, and immediately swallowed the mixture.
(§3) For both the Control experiment and the Test experiment, each participant recorded the time of dose administration, the time of onset of euphoria and/or dysphoria, and the observed level of euphoria and/or dysphoria in fifteen minute intervals for five hours following administration of the cannabis dose. Euphoria and dysphoria were reported using a scale value, in a range from 1-10.

[2] = Example 4: cannabis/SNAC oral rat pharmacokinetic (PK) study; type: in vivo, rats; details: for Cmax increase over cannabis alone: oral gavage, 50 mg/kg cannabis extract with 500 mg/kg SNAC versus 25 mg/kg cannabis alone
Protocol: Example 4. Summary of cannabis/SNAC oral rat pharmacokinetic (PK) study.
Methods. Animals were dosed on Day 1 and a series of blood samples were collected over a period of 4 hours post dose for pharmacokinetic evaluation. Animals were euthanized following collection of their last blood sample.

study participants [3] = assay: Example 1: onset and duration of action of orally administered cannabis/SNAC composition (self-reported euphoria/dysphoria, 200 mg SNAC); type: in vivo, human; details: oral cannabinoid formulation, 200 mg SNAC
Protocol: Example 1. […] This study was designed to assess the utility of SNAC in enabling a rapid-acting oral form of cannabis.
Selection of Participants. Six study participants were recruited to ingest cannabis compositions and record the onset, duration, and intensity of cannabis-induced euphoria and/or dysphoria.
as §1, §2, §3

[4] = cited from earlier work

SMILES | effect of the absorption enhancer on the duration of action (study participants [1]) | effect on cannabinoid absorption ([2]; administered to rats by oral gavage) | effect of the absorption enhancer on the cannabinoid duration of action (study participants [3]) | Cmax increase over cannabis alone ([2]; rats) | mean maximum concentration Cmax ([2]; rats, single oral gavage, cannabis extract (THC/CBD 1:1) with SNAC, range over Groups 3-5 (25/250, 25/500, 50/500 mg extract/kg and mg SNAC/kg)) | AUC0-Tlast ([2]; rats, single oral gavage, cannabis extract with SNAC, range over Groups 3-5) | time to reach the mean maximum plasma concentration (Tmax) ([2]; rats, single oral gavage, cannabis extract with SNAC, range over Groups 3-5, post dose) | duration of appetite stimulant effect ([4]; after administration) | onset of action ([4]; after oral administration) | peak effect ([4]; after oral administration) | administered dose reaching the systemic circulation ([4]; oral, first pass hepatic metabolism and high lipid solubility)
O=C([O-])CCCCCCCNC(=O)c1ccccc1O.[Na+] [SNAC, sodium N-[8-(2-hydroxybenzoyl)amino] caprylate] | no effect | enhances cannabinoid absorption | no effect | – | – | – | – | – | – | – | –
C=C(C)[C@@H]1CCC(C)=C[C@H]1c1c(O)cc(CCCCC)cc1O [CBD, cannabidiol] | – | – | – | 14.2 fold | 31.7 to 159.3 ng/mL | 13.17 to 382.14 ng·h/mL | 15 to 60 min | – | – | – | –
CCCCCc1cc(O)c2c(c1)OC(C)(C)[C@@H]1CCC(C)=C[C@@H]21 [THC, (−)-trans-delta-9-tetrahydrocannabinol] | – | – | – | 6.9 fold | – | – | – | ≥ 24 h | 0.5 to 1 h | 2 to 4 h | 10-20%
